Key:
[1] = tested on: COLO 205 colorectal tumor cells; assay: Tumor cell viability inhibition assay (CellTiter-Glo 2.0, 72 hours); format: cell-based; conditions: COLO 205 cell viability
Procedure: The effect of compound treatment on COLO 205 tumor cell viability was assessed using cellular ATP quantification methods (Promega CellTiter-Glo® 2.0, G9241), as follows. Test compounds were prepared using 11-point, 4-fold serial dilutions in DMSO and 100 nL of diluted compounds were transferred to 384-well assay-ready plates. COLO 205 (ATCC, CCL-222) colorectal tumor cells were seeded to assay-ready plates in RPMI-1640 medium supplemented with 10% FBS at 1500 cells in a volume of 33.5 microliters per well. After 72 hours of compound treatment, cellular ATP was assessed by CellTiter-Glo® 2.0 Cell Viability Assay method, according to the manufacturer's instructions. Luminescence was measured using a Clariostar Plus microplate reader (BMG Labtech) or equivalent. After normalization to the average of DMSO control and maximum inhibition control wells, concentration-response data were plotted and standard 4-parameter curve fitting (PEI Signals) was utilized to determine IC50

[2] = target: T1, human eIF4E protein (Homo sapiens, UniProt P06730); assay: Biochemical competitive binding assay (TR-FRET competition, EDA-m7GDP-ATTO-647N probe); conditions: read-out: hEIF4E TR-FRET IC50
T1 construct: purchased Novus NBP-45314
T1 sequence (P06730 whole entry): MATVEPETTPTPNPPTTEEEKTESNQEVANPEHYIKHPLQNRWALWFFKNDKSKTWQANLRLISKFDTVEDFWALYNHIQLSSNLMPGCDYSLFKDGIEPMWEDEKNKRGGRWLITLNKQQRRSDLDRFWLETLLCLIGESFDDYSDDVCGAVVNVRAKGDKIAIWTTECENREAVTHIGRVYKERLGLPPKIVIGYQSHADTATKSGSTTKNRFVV
Procedure: The potencies of compounds binding to human eIF4E protein were measured using a 384-well time-resolved fluorescence resonance energy transfer (TR-FRET) competition assay. The assay was performed in assay buffer containing 50 mM HTEPES pH 7.5, 100 mM KCl, 0.02% Tween-20, and 0.1 mg/mL bovine serum albumin (BSA). The reaction volume was 10 μL and each reaction contained 4 nM recombinant 6×HIS-tagged human EIF4E protein (Novus, NBP-45314), 5 nM EDA-m7GDP-ATTO-647N (Jena Bioscience, NU-827-647N), 2.5 nM Europium conjugated Anti-6×HIS antibody (PerkinElmer, AD0402) and varying concentrations of compound. The final DMSO concentration was […].
Compounds were prepared using 11-point, 4-fold serial dilutions in DMSO and 100 nL of diluted compounds were transferred to 384-well assay-ready plates. Recombinant human EIF4E protein at 2× final concentration (8 nM) was pre-incubated with Eu-anti-6×HIS antibody at 2× final concentration (5 nM) for 5 minutes, then 5 μL of the protein solution was added to assay-ready plates. The protein/compound mix was incubated for 15 minutes, after which 5 μL of a solution containing EDA-m7GDP-ATTO-647N probe at 2× final concentration (10 nM) was added. After a subsequent 15-minute incubation, time-resolved fluorescence of assay plates was measured using a Clariostar Plus microplate reader (BMG Labtech) and TR-FRET values were calculated by taking a ratio of the 665 to 620 wavelength signals. After normalization to the average of DMSO control and maximum inhibition control wells, concentration-response data were plotted and standard 4-parameter curve fitting (PEI Signals) was utilized to determine IC50 values.

| SMILES | IC50 ([1]; Homo sapiens, COLO 205, 72 h) | IC50 [2] | IC50 [1] |
| --- | --- | --- | --- |
| Cc1cc(-c2cc(Cl)ccc2OCCn2c(C)nc3c(c2=O)C[C@H](N2CCC(N4CC(F)(F)C4)CC2)CC3)c2scc(C(=O)O)c2n1 (single isomer, unassigned) [Compound 111] | < 5 µM | < 0.1 µM |  |
| Cc1cc(-c2cc(Cl)ccc2OCCn2c(C)nc3c(c2=O)CC(N2CC4CC(C2)C4(F)F)CC3)c2scc(C(=O)O)c2n1 (single isomer, unassigned) [Compound 375] |  | < 0.1 µM | < 5 µM |
| Cc1cc(-c2cc(Cl)ccc2OCCn2c(C)nc3c(c2=O)C[C@H](N2CCC(n4cccn4)CC2)CC3)c2scc(C(=O)O)c2n1 (single isomer, unassigned) [Compound 473] | < 5 µM | < 0.1 µM |  |
| Cc1cc(-c2cc(Cl)ccc2OCCn2c(C)nc3c(c2=O)CC(N2CCC4(CC2)CN(CC(F)(F)F)CCO4)CC3)c2scc(C(=O)O)c2n1 (single isomer, unassigned) [Compound 517] | < 5 µM | < 0.1 µM |  |
| Cc1cc(-c2cc(Cl)ccc2OCCn2c(C)nc3c(c2=O)C[C@H](N2CCC[C@@H](c4ncccc4F)C2)CC3)c2scc(C(=O)O)c2n1 (single isomer, unassigned) [Compound 465] | < 5 µM | < 0.1 µM |  |
| Cc1cc(-c2cc(Cl)ccc2OCCn2c(C)nc3c(c2=O)C[C@@H](N2CC[C@H](C(F)F)C2)CC3)c2scc(C(=O)O)c2n1 (single isomer, unassigned) [Compound 113] | < 5 µM | < 0.1 µM |  |
| Cc1cc(-c2cc(Cl)ccc2OCCn2c(C)nc3c(c2=O)C[C@H](N2CCC[C@H](C(F)F)C2)CC3)c2scc(C(=O)O)c2n1 (single isomer, unassigned) [Compound 117] | < 5 µM | < 0.1 µM |  |
| Cc1cc(-c2cc(Cl)ccc2OCCn2c(C)nc3c(c2=O)C[C@H](N2CCC(OC(F)F)CC2)CC3)c2scc(C(=O)O)c2n1 (single isomer, unassigned) [Compound 385] | < 5 µM | < 0.1 µM |  |
| Cc1cc(-c2cc(Cl)c(=O)[nH]c2OCCn2c(C)nc3c(c2=O)CC(N(C)C2CC2)CC3)c2scc(C(=O)O)c2n1 (single isomer, unassigned) [Compound 233] | > 20 µM | 0.5 to 5 µM |  |
| Cc1cc(-c2cc(Cl)ccc2OCCn2c(C)nc3c(c2=O)C[C@@H](N2CCC(OC(F)F)CC2)CC3)c2scc(C(=O)O)c2n1 (single isomer, unassigned) [Compound 360] | < 5 µM | < 0.1 µM |  |
| Cc1cc(-c2cc(Cl)ccc2OCCn2c(C)nc3c(c2=O)C[C@H](N2CCC4(CC2)CC4(F)F)CC32CC2)c2scc(C(=O)O)c2n1 (single isomer, unassigned) [Compound 564] | < 5 µM | < 0.1 µM |  |
| Cc1cc(-c2cc(Cl)ccc2OCCn2c(C)nc3c(c2=O)C[C@H](N2CC[C@H](C(F)F)C2)CC3)c2scc(C(=O)O)c2n1 (single isomer, unassigned) [Compound 122] | < 5 µM | < 0.1 µM |  |
| CCN(Cc1ccnc(OC)c1)C1CCc2nc(C)n(CCOc3ccc(Cl)cc3-c3cc(C)nc4c(C(=O)O)csc34)c(=O)c2C1 (stereo not shown) [Compound 129] | < 5 µM | < 0.1 µM |  |

Second part, led by results:

| IC50 ([1]; Homo sapiens, COLO 205, 72 h) | IC50 [2] | SMILES | IC50 [1] |
| --- | --- | --- | --- |
| < 5 µM | < 0.1 µM | CO[C@H](C1CCN([C@H]2CCc3nc(C)n(CCOc4ccc(Cl)cc4-c4cc(C)nc5c(C(=O)O)csc45)c(=O)c3C2)CC1)C(F)(F)F (single isomer, unassigned) [Compound 563] |  |
| < 5 µM | < 0.1 µM | Cc1cc(-c2cc(Cl)ccc2OCCn2c(C)nc3c(c2=O)C[C@@H](N2CCC[C@@]4(C2)CC4(F)F)CC32CC2)c2scc(C(=O)O)c2n1 (single isomer, unassigned) [Compound 582] |  |
| < 5 µM | < 0.1 µM | Cc1cc(-c2cc(Cl)ccc2OCCn2c(C)nc3c(c2=O)C[C@@H](N(C)CC2CC(F)(F)C2)CC32CC2)c2scc(C(=O)O)c2n1 (single isomer, unassigned) [Compound 569] |  |
| 5 to 20 µM | < 0.1 µM | Cc1cc(-c2cc(Cl)ccc2OCCn2c(C)nc3c(c2=O)C[C@H](N2CCC4(CCCO4)CC2)CC3)c2scc(C(=O)O)c2n1 (single isomer, unassigned) [Compound 420] |  |
|  | < 0.1 µM | COC1CCN(C2(C)CCc3nc(C)n(CCOc4ccc(Cl)cc4-c4cc(C)nc5c(C(=O)O)csc45)c(=O)c3C2)CC1(C)C (single isomer, unassigned) [Compound 565] | < 5 µM |
| > 20 µM | 0.5 to 5 µM | Cc1cc(-c2cc(Cl)c(=O)[nH]c2OCCn2c(C)nc3c(c2=O)CC(N(C)CC2CC(F)(F)C2)CC3)c2scc(C(=O)O)c2n1 (single isomer, unassigned) [Compound 237] |  |
| < 5 µM | < 0.1 µM | Cc1cc(-c2cc(Cl)ccc2OCCn2c(C)nc3c(c2=O)CC(N(C)C24CC5CC(CC(C5)C2)C4)CC3)c2scc(C(=O)O)c2n1 (single isomer, unassigned) [Compound 468] |  |
| < 5 µM | < 0.1 µM | CO[C@@H]1CCN([C@H]2CCc3nc(C)n(CCOc4ccc(Cl)cc4-c4cc(C)nc5c(C(=O)O)csc45)c(=O)c3C2)CC1(C)C (single isomer, unassigned) [Compound 377] |  |
| 5 to 20 µM | < 0.1 µM | Cc1cc(-c2cc(Cl)ccc2OCCn2c(C)nc3c(c2=O)C[C@@H](NC24CC5CC(CC(C5)C2)C4)CC3)c2scc(C(=O)O)c2n1 (single isomer, unassigned) [Compound 413] |  |
| < 5 µM | < 0.1 µM | Cc1cc(-c2cc(Cl)ccc2OCCn2c(C)nc3c(c2=O)C[C@H](N2CCCC[C@@H]2C)CC3)c2scc(C(=O)O)c2n1 (single isomer, unassigned) [Compound 436] |  |
| < 5 µM | < 0.1 µM | Cc1nc2c(c(=O)n1CC#Cc1ccc(Cl)cc1-c1ccnc3c(C(=O)O)csc13)C[C@H](N1CCC[C@@]3(C1)CC3(F)F)CC2 (single isomer, unassigned) [Compound 550, 7-(5-chloro-2-(3-(6-(1,1-difluoro-5-azaspiro[2.5]octan-5-yl)-2-methyl-4-oxo-5,6,7,8-tetrahydroquinazolin-3(4H)-yl)prop-1-yn-1-yl)phenyl)thieno[3,2-b]pyridine-3-carboxylic acid] |  |
| 5 to 20 µM | < 0.1 µM | Cc1cc(-c2cc(Cl)ccc2OCCn2c(C)nc3c(c2=O)C[C@@H](N2CC[C@@H](OC(F)(F)F)C(F)(F)C2)CC3)c2scc(C(=O)O)c2n1 (single isomer, unassigned) [Compound 405] |  |
| < 5 µM | < 0.1 µM | Cc1cc(-c2cc(Cl)ccc2OCCn2c(C)nc3c(c2=O)CC(N2CC4(CCC(F)(F)CC4)C2)CC3)c2scc(C(=O)NS(C)(=O)=O)c2n1 (single isomer, unassigned) [Compound 363] |  |
| < 5 µM | < 0.1 µM | Cc1cc(-c2cc(Cl)ccc2OCCn2c(C)nc3c(c2=O)C[C@@H](N2CCCC(F)(F)CC2)CC32CC2)c2scc(C(=O)O)c2n1 (single isomer, unassigned) [Compound 544] |  |
| < 5 µM | < 0.1 µM | Cc1cc(-c2cc(Cl)ccc2OCCn2c(C)nc3c(c2=O)C[C@@H](N2CCC(c4nc5ccc(F)cc5s4)CC2)CC3)c2scc(C(=O)O)c2n1 (single isomer, unassigned) [Compound 594] |  |
| < 5 µM | < 0.1 µM | Cc1cc(-c2cc(Cl)ccc2OCCn2c(C)nc3c(c2=O)C[C@H](N2CCC[C@@]4(C2)CC4(F)F)CC32CC2)c2scc(C(=O)O)c2n1 (single isomer, unassigned) [Compound 580] |  |
| < 5 µM | < 0.1 µM | Cc1cc(-c2cc(Cl)ccc2OCCn2c(C)nc3c(c2=O)C[C@H](N2CCO[C@@H](CC(F)(F)F)C2)CC3)c2scc(C(=O)O)c2n1 (single isomer, unassigned) [Compound 523] |  |
| < 5 µM | < 0.1 µM | Cc1cc(-c2cc(Cl)ccc2OCCn2c(C)nc3c(c2=O)C[C@H](N2CCC(c4ncn(C)n4)CC2)CC3)c2scc(C(=O)O)c2n1 (single isomer, unassigned) [Compound 462] |  |
| < 5 µM | < 0.1 µM | Cc1cc(-c2cc(Cl)ccc2OCCn2c(C)nc3c(c2=O)C[C@H](N2CCO[C@@H](COC(F)(F)F)C2)CC3)c2scc(C(=O)O)c2n1 (single isomer, unassigned) [Compound 477] |  |
